The subject of test [1] is guinea pig tracheal smooth muscle. The test is described as follows: Tracheal relaxant activity of VIP analogs on isolated guinea pig tracheal rings. It counts as cell-based. The settings on record: cumulative concentration response, relaxation as % of maximum response to VIP (10^-6 M=100%), three tissues pooled, linear regression. A digest of the protocol:
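Male guinea pig tracheal rings under 1.5 g resting tension in Krebs at 37° C, 95% O2/5% CO2, isometric tension. Cumulative concentration-response curves; relaxation as % of response to 10^-6 M VIP added at end; three tissues pooled, EC50 by linear regression.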

Another test deals with guinea pigs. The test is described as follows: In vivo bronchodilator activity by tracheal instillation against histamine challenge. On the set-up: species or system guinea pig. Conditions: anesthetized male guinea pigs, inhibition of histamine (i.v.)-induced rise in tracheal pressure. As to the method: The in vivo bronchodilator activity of VIP and VIP analogs in guinea pigs was assessed by the tracheal instillation route of administration. This technique utilized male guinea pigs (Hartley strain, Charles River) weighing 400-600 g. Animals were anesthetized with urethane (2 g/kg) intraperitoneally and a polyethylene cannula was inserted into the jugular vein for intraveneous drug administration.
The animals were tracheotomized and dosing solutions of distilled water or test compound dissolved in distilled water were administered into the trachea, approximately three-quarters the distance to the carina with a pipette. The concentration of the dosing solution was adjusted to deliver a constant volume of […]. The animals were placed supine for one minute to aid drug delivery to the lung. One minute later, spontaneous breathing was arrested with succinylcholine chloride (1.2 mg/kg) administered intraveneously, and the animals were ventilated with a HARVARD Model 680 small animal respirator set at 40 breaths/min and 4.0 cm^3 stroke volume. The animals were challenged with a maximal constrictory dose of histamine ([…], i.v.) and tracheal pressure (cm of water) was recorded from a STATHAM pressure transducer (P 32 AA).
The change in tracheal pressure was averaged for at least 3 control and 3 drug-treated animals and percent inhibition was calculated. The relative potency of compounds administered by the instillation route was determined by administering various doses of test compound and calculating the median effective dose (ED50 value). The ED50 was determined from log dose-response curves generated by at least 3 doses that caused inhibitory effects between 10% and 90%. The correlation coefficients for the regression line of each compound was always greater than 0.95.
For determination of the time course of inhibition for various compounds, the time between administration of compound and challenge with histamine was varied. The time course of activity was calculated as the time when inhibition decreased to 40%.
The results summarized in Table II show the in vivo bronchodilator activity of the VIP analogs in comparison to native VIP.

The structures appear in SMILES notation. Where a SMILES comes first, the peptide text is derived from it. Bridges are numbered along the chain shown (N, C = ends). [ ]: non-standard residue; d: D form. The star is where a group is joined. Phe(4-F) = N[C@@H](Cc1ccc(F)cc1)C(=O)O; NMeA = CN[C@@H](C)C(=O)O; Nle = CCCC[C@H](N)C(=O)O; Acm = CC(=O)NC*

In turn, `CCCC[C@H](NC(=O)[C@H](CCC(N)=O)NC(=O)[C@H](CCCCN)NC(=O)[C@H](CCCNC(=N)N)NC(=O)[C@H](CC(C)C)NC(=O)[C@H](CCCCN)NC(=O)[C@@H](NC(=O)[C@H](Cc1ccc(O)cc1)NC(=O)[C@H](CC(N)=O)NC(=O)[C@H](CC(=O)O)NC(=O)[C@@H](NC(=O)[C@H](Cc1ccc(F)cc1)NC(=O)[C@@H](NC(=O)[C@H](C)NC(=O)[C@H](CC(=O)O)NC(=O)[C@H](CO)NC(=O)[C@H](Cc1c[nH]cn1)NC(C)=O)C(C)C)[C@@H](C)O)[C@@H](C)O)C(=O)N[C@@H](C)C(=O)N[C@@H](C)C(=O)N[C@@H](CCCCN)C(=O)N[C@H]1CCCCNC(=O)C[C@@H](C(=O)N[C@H](C(=O)N[C@@H](CC(C)C)C(=O)N[C@H](C(=O)NCC(=O)NCC(=O)N[C@@H](CSCNC(C)=O)C(N)=O)[C@@H](C)O)C(C)C)NC(=O)[C@H](CC(N)=O)NC(=O)[C@H](CC(C)C)NC(=O)[C@H](Cc2ccc(O)cc2)NC1=O` [SEQ ID NO:32, Ac-[p-F-Phe^6,Lys^12,Nle^17,Ala^19,Asp^25,Val^26,Thr^28,Gly^29,30,Cys(Acm)^31]-VIP (1-31)-NH2 cyclo (Lys^21 →Asp^25)] (Ac-HSDAV[Phe(4-F)]TDNYTKLRKQ[Nle]AAKKYLNDVLTGGC(Acm)-NH2; lactam 21-25) gave a concentration for a half-maximal effect (EC50) in test [1] of 0.44 nM. Further, in the test on guinea pigs, the “Bronchodilator activity of VIP analogs in guinea pigs, ED50” value (from here on “Bronchodilator activity of VIP analogs”) is listed as 0.19 μg.
As for `CCCC[C@H](NC(=O)[C@H](CCC(N)=O)NC(=O)[C@H](CCCCN)NC(=O)[C@H](CCCNC(=N)N)NC(=O)[C@H](CC(C)C)NC(=O)[C@H](CCCCN)NC(=O)[C@@H](NC(=O)[C@H](Cc1ccc(O)cc1)NC(=O)[C@H](CC(N)=O)NC(=O)[C@H](CC(=O)O)NC(=O)[C@@H](NC(=O)[C@H](Cc1ccccc1)NC(=O)[C@@H](NC(=O)[C@H](C)NC(=O)[C@H](CC(=O)O)NC(=O)[C@H](C)NC(=O)[C@H](Cc1c[nH]cn1)NC(C)=O)C(C)C)[C@@H](C)O)[C@@H](C)O)C(=O)N[C@@H](C)C(=O)N[C@@H](C)C(=O)N[C@@H](CCCCN)C(=O)N[C@H]1CCCCNC(=O)C[C@@H](C(=O)N[C@H](C(=O)N[C@@H](CC(C)C)C(=O)N[C@H](C(N)=O)[C@@H](C)O)C(C)C)NC(=O)[C@H](CC(N)=O)NC(=O)[C@H](CC(C)C)NC(=O)[C@H](Cc2ccc(O)cc2)NC1=O` [SEQ ID NO:33, Ac-[Ala^2,Lys^12,Nle^17,Ala^19,Asp^25,Val^26,Thr^28]-VIP cyclo (Lys^21 →Asp^25)] (Ac-HADAVFTDNYTKLRKQ[Nle]AAKKYLNDVLT-NH2; lactam 21-25), the concentration giving a half-maximal response (EC50) in test [1] turned out to be 1.2 nM. For the same molecule, the “Bronchodilator activity of VIP analogs” value in the test with guinea pigs is listed as 0.6 μg.
The corresponding values for `CCCC[C@H](NC(=O)[C@H](CCC(N)=O)NC(=O)[C@H](CCCCN)NC(=O)[C@H](CCCNC(=N)N)NC(=O)[C@H](CC(C)C)NC(=O)[C@H](CCCCN)NC(=O)[C@@H](NC(=O)[C@H](Cc1ccc(O)cc1)NC(=O)[C@H](CC(N)=O)NC(=O)[C@H](CC(=O)O)NC(=O)[C@@H](NC(=O)[C@H](Cc1ccccc1)NC(=O)[C@@H](NC(=O)[C@H](C)NC(=O)[C@H](CC(=O)O)NC(=O)[C@H](CO)NC(=O)[C@H](C)N(C)C(C)=O)C(C)C)[C@@H](C)O)[C@@H](C)O)C(=O)N[C@@H](C)C(=O)N[C@@H](C)C(=O)N[C@@H](CCCCN)C(=O)N[C@H]1CCCCNC(=O)C[C@@H](C(=O)N[C@H](C(=O)N[C@@H](CC(C)C)C(=O)N[C@H](C(N)=O)[C@@H](C)O)C(C)C)NC(=O)[C@H](CC(N)=O)NC(=O)[C@H](CC(C)C)NC(=O)[C@H](Cc2ccc(O)cc2)NC1=O` [SEQ ID NO:34, Ac-[N-Me-Ala^1,Lys^12,Nle^17,Ala^19,Asp^25,Val^26,Thr^28]-VIP cyclo (Lys^21 →Asp^25)] (Ac-[NMeA]SDAVFTDNYTKLRKQ[Nle]AAKKYLNDVLT-NH2; lactam 21-25) are 0.71 nM and 1.0 μg.
Take `CCCC[C@H](NC(=O)[C@H](CCC(N)=O)NC(=O)[C@H](CCCCN)NC(=O)[C@H](CCCNC(=N)N)NC(=O)[C@H](CC(C)C)NC(=O)[C@H](CCCCN)NC(=O)[C@@H](NC(=O)[C@H](Cc1ccc(O)cc1)NC(=O)[C@H](CC(N)=O)NC(=O)[C@H](CC(=O)O)NC(=O)[C@@H](NC(=O)[C@H](Cc1ccccc1)NC(=O)[C@@H](NC(=O)[C@H](C)NC(=O)[C@H](CC(=O)O)NC(=O)[C@H](CO)NC(=O)[C@H](Cc1c[nH]cn1)NC(C)=O)C(C)C)[C@@H](C)O)[C@@H](C)O)C(=O)N[C@@H](C)C(=O)N[C@@H](C)C(=O)N[C@@H](CCCCN)C(=O)N[C@H]1CCCCNC(=O)C[C@@H](C(=O)N[C@@H](CC(C)C)C(=O)N[C@@H](CCCCN)C(=O)N[C@@H](CCCCN)C(N)=O)NC(=O)[C@H](CC(N)=O)NC(=O)[C@H](CC(C)C)NC(=O)[C@H](Cc2ccc(O)cc2)NC1=O` [SEQ ID NO:38, Ac-[Lys^12,Nle^17,Ala^19,Asp^25,Leu^26,Lys^27,28]-VIP cyclo (Lys^21 →Asp^25)] (Ac-HSDAVFTDNYTKLRKQ[Nle]AAKKYLNDLKK-NH2; lactam 21-25): in test [1], the half-maximal effective concentration (EC50) was 0.13 nM. Moreover, the “Bronchodilator activity of VIP analogs” value in the test with guinea pigs came out at 0.09 μg.
The corresponding values for `CCCC[C@H](NC(=O)[C@H](CCC(N)=O)NC(=O)[C@H](CCCCN)NC(=O)[C@H](CCCNC(=N)N)NC(=O)[C@H](CC(C)C)NC(=O)[C@H](CCCCN)NC(=O)[C@@H](NC(=O)[C@H](Cc1ccc(O)cc1)NC(=O)[C@H](CC(N)=O)NC(=O)[C@H](CC(=O)O)NC(=O)[C@@H](NC(=O)[C@H](Cc1ccccc1)NC(=O)[C@@H](NC(=O)[C@H](C)NC(=O)[C@H](CC(=O)O)NC(=O)[C@H](CO)NC(=O)[C@H](C)N(C)C(C)=O)C(C)C)[C@@H](C)O)[C@@H](C)O)C(=O)N[C@@H](C)C(=O)N[C@@H](C)C(=O)N[C@@H](CCCCN)C(=O)N[C@H]1CCCCNC(=O)C[C@@H](C(=O)N[C@@H](CC(C)C)C(=O)N[C@@H](CCCCN)C(=O)N[C@@H](CCCCN)C(N)=O)NC(=O)[C@H](CC(N)=O)NC(=O)[C@H](CC(C)C)NC(=O)[C@H](Cc2ccc(O)cc2)NC1=O` [SEQ ID NO:39, Ac-[N-Me-Ala^1,Lys^12,Nle^17,Ala^19,Asp^25,Leu^26,Lys^27,28]-VIP cyclo (Lys^21 →Asp^25)] (Ac-[NMeA]SDAVFTDNYTKLRKQ[Nle]AAKKYLNDLKK-NH2; lactam 21-25) are 0.95 nM and 0.06 μg.
Molecule `CCCC[C@H](NC(=O)[C@H](CCC(N)=O)NC(=O)[C@H](CCCCN)NC(=O)[C@H](CCCNC(=N)N)NC(=O)[C@H](CC(C)C)NC(=O)[C@H](CCCCN)NC(=O)[C@@H](NC(=O)[C@H](Cc1ccc(O)cc1)NC(=O)[C@H](CC(N)=O)NC(=O)[C@H](CCC(=O)O)NC(=O)[C@@H](NC(=O)[C@H](Cc1ccccc1)NC(=O)[C@@H](NC(=O)[C@H](C)NC(=O)[C@H](CC(=O)O)NC(=O)[C@H](CO)NC(=O)[C@H](Cc1c[nH]cn1)NC(C)=O)C(C)C)[C@@H](C)O)[C@@H](C)O)C(=O)N[C@@H](C)C(=O)N[C@@H](C)C(=O)N[C@@H](CCCCN)C(=O)N[C@H]1CCCCNC(=O)C[C@@H](C(=O)N[C@@H](CC(C)C)C(=O)N[C@@H](CCCCN)C(=O)N[C@@H](CCCCN)C(N)=O)NC(=O)[C@H](CC(N)=O)NC(=O)[C@H](CC(C)C)NC(=O)[C@H](Cc2ccc(O)cc2)NC1=O` [SEQ ID NO:40, Ac-[Glu^8,Lys^12,Nle^17,Ala^19,Asp^25,Leu^26,Lys^27,28]-VIP cyclo (Lys^21 →Asp^25)] (Ac-HSDAVFTENYTKLRKQ[Nle]AAKKYLNDLKK-NH2; lactam 21-25) showed an EC50 in test [1] of 0.45 nM. Further, the “Bronchodilator activity of VIP analogs” value in the test on guinea pigs stood at 0.022 μg.
In the same order, the values of `CCCC[C@H](NC(=O)[C@H](CCC(N)=O)NC(=O)[C@H](CCCCN)NC(=O)[C@H](CCCNC(=N)N)NC(=O)[C@H](CC(C)C)NC(=O)[C@H](CCCCN)NC(=O)[C@@H](NC(=O)[C@H](Cc1ccc(O)cc1)NC(=O)[C@H](CC(N)=O)NC(=O)[C@H](CCC(=O)O)NC(=O)[C@@H](NC(=O)[C@H](Cc1ccccc1)NC(=O)[C@@H](NC(=O)[C@H](C)NC(=O)[C@H](CC(=O)O)NC(=O)[C@H](CO)NC(=O)[C@H](Cc1c[nH]cn1)NC(C)=O)C(C)C)[C@@H](C)O)[C@@H](C)O)C(=O)N[C@@H](C)C(=O)N[C@@H](C)C(=O)N[C@@H](CCCCN)C(=O)N[C@H]1CCCCNC(=O)C[C@@H](C(=O)N[C@@H](CC(C)C)C(=O)N[C@@H](CCCCN)C(=O)N[C@@H](CCCCN)C(=O)N[C@@H](C)C(=O)N[C@@H](C)C(=O)N[C@@H](C)C(N)=O)NC(=O)[C@H](CC(N)=O)NC(=O)[C@H](CC(C)C)NC(=O)[C@H](Cc2ccc(O)cc2)NC1=O` [SEQ ID NO:42, Ac-[Glu^8,Lys^12,Nle^17,Ala^19,Asp^25,Leu^26,Lys^27,28,Ala^29-31]-VIP cyclo (Lys^21 →Asp^25)] (Ac-HSDAVFTENYTKLRKQ[Nle]AAKKYLNDLKKAAA-NH2; lactam 21-25) are 0.61 nM and 0.072 μg.

A word on the EC50: it is the concentration that produces a half-maximal response.

Values taken from patent US5677419A, “Cyclic vasoactive peptide analogs” (Hoffmann-La Roche Inc., priority 1994, dated 1997).
